Test results taken from patent US4588817A, “Antibiotic nodusmicins” (priority 1984, dated 1986).
In brackets after ≈: the same amount, converted by molar mass. Read-outs that look alike come from different tables or passages of the source.

Columns and labels:
[1] = solubility remark in the MIC test; details: in place of MIC values
S. aureus UC-76 = assay: MIC, microplate broth-dilution, S. aureus UC-76; details: Sensitive strain; BHI broth
S. aureus UC-570 = assay: MIC, microplate broth-dilution, S. aureus UC-570; details: Sensitive strain; BHI broth
S. aureus UC-746 = assay: MIC, microplate broth-dilution, S. aureus UC-746; details: Resistant to tetracycline; BHI broth
S. aureus UC 80 = assay: agar diffusion (dipped disc) assay, zone of inhibition, S. aureus UC 80; details: 1 mg./ml. methanolic solution, 12.7 mm paper disc, 16 hours; NZ = no zone
S. lutea UC-130 = assay: agar diffusion (dipped disc) assay, zone of inhibition, S. lutea UC-130; details: for zone of inhibition at 1000 µg/mL: Micrococcus luteus

Molecule	insoluble [1]	MIC S. aureus UC-76 (S. aureus UC-76)	Agar Diffusion S. aureus UC 80 (inhibition zone) (S. aureus UC 80)	also measured
COC1CC2C=CC3C4OC2(C(C)=CC(C)C(C(C)OC(=O)c2ccc[nH]2)OC1=O)C3C(O)C(C)C4OC(=O)c1ccc[nH]1 (stereo not drawn) [U-60,908, 9, 18-O--Dipyrrole-2-carbonyl-]	insoluble	–	–	–
COC1CC2C=CC3C4OC2(C(C)=CC(C)C(C(C)O)OC1=O)C3C(O)C(C)C4OC(=O)c1cc2ccccc2[nH]1 (stereo not drawn) [U-61,273, 9-O--Indole-2-carbonyl-]	insoluble	–	–	–
9-O--3-Furoyl- [U-61,461]	–	0.50 µg/mL	35	MIC S. aureus UC-570 (S. aureus UC-570): 0.25 µg/mL; MIC S. aureus UC-746 (S. aureus UC-746): 0.50 µg/mL; Agar Diffusion S. lutea UC-130 (inhibition zone) (S. lutea UC-130; 1 mg./ml. methanolic solution, 12.7 mm paper disc, 16 hours, NZ = no zone): 41
COC1CC2C=CC3C4OC2(C(C)=CC(C)C(C(C)O)OC1=O)C3C(O)C(C)C4OC(=O)c1ccccc1 (stereo not drawn) [9-O--benzoyl-, 9-O-benzoyl-nodusmicin]	insoluble	–	–	–
COC1CC2C=CC3C4OC2(C(C)=CC(C)C(C(C)OC(=O)c2ccccc2)OC1=O)C3C(O)C(C)C4O (stereo not drawn) [18-O--benzoyl-, 18-O-benzoylnodusmicin]	–	–	–	zone of inhibition at 1000 µg/mL (S. lutea UC-130; UC130, 16 h, read-out: Agar Diffusion S. lutea UC-130 (inhibition zone)): 24 mm; zone of inhibition at 1000 µg/mL (S. lutea UC-130; UC130, read-out: zone of inhibition, S. lutea): 24 mm
COC1CC2C=CC3C4OC2(C(C)=CC(C)C(C(C)O)OC1=O)C3C(O)C(C)C4OC(=O)c1ccc[nH]1 (stereo not drawn) [U-59,760, 9-O-pyrrole-2-carbonyl ester of nodusmicin, reference compound]	–	0.125 µg/mL (≈ 0.242 µM)	38	–
